Experimental data from patent US20260250290A1 (BRISTOL-MYERS SQUIBB COMPANY, priority 2023, published 2026).
pIC50: −log10 of the molar value.

target: T1, SGK1 (Homo sapiens, UniProt O00141); test: SGK1 inhibition Assay B (Echo mass spectrometry of phosphorylated peptide product); type: biochemical; settings: 60 min at room temperature
T1 sequence (O00141 1-431): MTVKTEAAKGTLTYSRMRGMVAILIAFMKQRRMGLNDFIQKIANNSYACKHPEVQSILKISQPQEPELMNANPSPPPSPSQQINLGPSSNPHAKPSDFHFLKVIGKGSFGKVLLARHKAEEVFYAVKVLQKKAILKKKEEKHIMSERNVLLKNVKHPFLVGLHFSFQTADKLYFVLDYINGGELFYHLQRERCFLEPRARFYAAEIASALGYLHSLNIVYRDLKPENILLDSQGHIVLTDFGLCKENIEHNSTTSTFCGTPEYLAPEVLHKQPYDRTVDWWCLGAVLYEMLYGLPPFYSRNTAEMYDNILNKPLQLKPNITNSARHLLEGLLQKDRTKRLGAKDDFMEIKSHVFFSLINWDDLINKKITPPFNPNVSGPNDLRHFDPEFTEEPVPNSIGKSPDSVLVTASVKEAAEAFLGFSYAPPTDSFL

Compound | pIC50
Nc1ncnn2c(-c3ccnc(C(F)F)c3)cc(N3CCC[C@@H](NC(=O)c4ccc(C(F)F)s4)C3)c12 [Example 482, (R)-N-(1-(4-amino-7-(2-(difluoromethyl)pyridin-4-yl)pyrrolo[2,1-f][1,2,4]triazin-5-yl)piperidin-3-yl)-5-(difluoromethyl)thiophene-2-carboxamide] | 8.52
COc1nc(-c2cc(N3CCC[C@@H](NC(=O)c4sc(C)nc4O[C@H]4CC[C@@H](N(C)C)CC4)C3)c3c(N)ncnn23)ccc1C(N)=O [Example 1057, N—((R)-1-(4-amino-7-(5-carbamoyl-6-methoxypyridin-2-yl)pyrrolo[2,1-f][1,2,4]triazin-5-yl)piperidin-3-yl)-4-(((1S,4S)-4 (dimethylamino)cyclohexyl)oxy)-2-methylthiazole5-carboxamide] | 8.77
CNC(=O)c1ccc(-c2cc(N3CCC[C@@H](NC(=O)c4sc(C)nc4O[C@H]4CC[C@@H](N(C)C)CC4)C3)c3c(N)ncnn23)nc1OC [Example 1058, N—((R)-1-(4-amino-7-(6-methoxy-5-(methylcarbamoyl)pyridin-2-yl)pyrrolo[2,1-f][1,2,4]triazin-5-yl)piperidin-3-yl)-4-(((1S,4S)-4-(dimethylamino)cyclohexyl)oxy)-2-methylthiazole-5-carboxamide] | 8.96
(R)-N-(1-(4-amino-7-(4-(5-methyl-1H-tetrazol-1-yl)phenyl)pyrrolo[2,1-f][1,2,4]triazin-5-yl)piperidin-3-yl)-2-(4-methylpiperazin-1-yl)pyrimidine-4-carboxamide [Example 857] | 7.82
N—((R)-1-(4-amino-7-(2-(tert-butyl)-1,1-dioxido-2,3-dihydrobenzo[d]isothiazol-5-yl)pyrrolo[2,1-f][1,2,4]triazin-5-yl)piperidin-3-yl)-5-chloro-3-(((1R,3s,5S)-8-methyl-8-azabicyclo [3.2.1]octan-3-yl)oxy)thiophene-2-carboxamide [Example 967] | 9.05
N—((R)-1-(4-amino-7-(5-fluoro-1-(2-methoxyethyl)-6-oxo-1,6-dihydropyridin-3-yl)pyrrolo[2,1-f][1,2,4]triazin-5-yl)piperidin-3-yl)-5-chloro-3-(((1R,3s,5S)-8-methyl-8-azabicyclo[3.2.1]octan-3-yl)oxy)thiophene-2-carboxamide [Example 974] | 9.00

target: T2, full length SGK1 (Homo sapiens, UniProt O00141); test: SGK1 inhibition Assay A (Caliper LabChip electrophoretic separation of fluorescent peptide substrate and phosphorylated product); type: biochemical; settings: Assay A; 20 μM ATP, 40 min incubation; read-out: SGK1 IC50
T2 construct: 125 μM full length SGK1 (Life Technologies Part #PR7358A); purchased Life Technologies PR7358A
T2 sequence (O00141 1-431): T1 sequence (O00141 1-431)

Compound | pIC50
Nc1ncnn2c(-c3ccnc(C(F)F)c3)cc(N3CCC[C@@H](NC(=O)c4ccc(C(F)F)s4)C3)c12 [Example 482, (R)-N-(1-(4-amino-7-(2-(difluoromethyl)pyridin-4-yl)pyrrolo[2,1-f][1,2,4]triazin-5-yl)piperidin-3-yl)-5-(difluoromethyl)thiophene-2-carboxamide] | 8.22
